Source: patent US20250127863A1, “ANTIMICROBIAL PEPTIDE FOR ONYCHOMYCOSIS” (CBMR SCIENTIFIC NANOSCIENCE B.V., priority 2019, published 2025)
No end group written: not given here.

Key:
[1] = system: C. parapsilosis CBS #57; experiment: MIC90 growth inhibition; assay type: cell-based, Candida parapsilosis; conditions: RPMI 1640 one-fourth strength
Experimental: (§1) The minimum inhibitory concentration (MIC) value is defined as the lowest sample concentration that inhibited growth. In the Examples, the MIC90 value is presented, which MIC90 values are determined according to established methods known to the person with the skills in the relevant art. Experiments; 1×10E5 CFU of various strains/ml were incubated for 24-48 h at 37° C. in 4× diluted medium of RPMI 1640 with the indicated concentrations of antimicrobial peptide hLF(1-11) [SEQ ID NO: 3]. As controls various strains cells were incubated for 24-48 h at 37° C. with no agent (antimicrobial peptide), and subsequently, growth of the microbial organism (e.g. yeast, bacterium) was monitored by using spectrophotometry with a spectrophotometer at 620 nm. […] ND=Not done. Representative single assay data are listed rather than a range, for clarity reasons and for ease of comparison of peptide efficacy. The MIC was calculated as the lowest antibiotic (antimicrobial peptide) concentration at which growth of the assessed yeast or bacterium (microbe) was inhibited (inhibitory concentration IC90).

[2] = system: C. parapsilosis CBS #61; experiment: MIC90 growth inhibition; assay type: cell-based, Candida parapsilosis; conditions: RPMI 1640 one-fourth strength
Experimental: as §1

[3] = system: C. parapsilosis CBS #7; experiment: MIC90 growth inhibition; assay type: cell-based, Candida parapsilosis; conditions: RPMI 1640 one-fourth strength
Experimental: as §1

[4] = system: C. parapsilosis CBS-604; experiment: MIC90 growth inhibition; assay type: cell-based, Candida parapsilosis; conditions: RPMI 1640 one-fourth strength
Experimental: as §1

[5] = system: C. parapsilosis CMC-2039; experiment: MIC90 growth inhibition; assay type: cell-based, Candida parapsilosis; conditions: RPMI 1640 one-fourth strength
Experimental: as §1

[6] = system: Phoma exigua; experiment: IC50 growth inhibition; assay type: cell-based
[7] = system: Candida parapsilosis; assay type: cell-based
Experimental: as §1
For 3 patients A, B, C who were treated with the low concentration of antimicrobial peptide, and for which now clinical improvement was established, it was established that one patient presented with a positive culture (Candida parapsilosis). […] See also Tables 1-3 in Example 4, here below. […]

[8] = system: Hypercrealis spp; experiment: MIC90 growth inhibition, organisms related to onychomycosis; assay type: cell-based; conditions: RPMI 1640 one-fourth strength
Experimental: as §1

[9] = system: Malassezia spp; experiment: as above; assay type: cell-based; conditions: RPMI 1640 one-fourth strength
Experimental: as §1

[10] = system: Scopulariopsis breyicaulis; experiment: as above; assay type: cell-based; conditions: RPMI 1640 one-fourth strength
Experimental: as §1

[11] = system: Trichophyton interdigitalis; experiment: as above; assay type: cell-based; conditions: RPMI 1640 one-fourth strength
Experimental: as §1

Sequence: GRRRRSVQWCA [hLF1-11, Gly Arg Arg Arg Arg Ser Val Gln Trp Cys Ala]
- Inhibitory concentration MIC (MIC90) [1]: MIC = 25-50 μg/mL
- Inhibitory concentration MIC (MIC90) [2]: MIC = 25-50 μg/mL
- Inhibitory concentration MIC (MIC90) [3]: MIC = 25-50 μg/mL
- Inhibitory concentration MIC (MIC90) ([4]; C. parapsilosis CBS-604, second listing): MIC = 25 μg/ml
- Inhibitory concentration MIC (MIC90) [4]: MIC = 25 μg/mL
- Inhibitory concentration MIC (MIC90) ([5]; C. parapsilosis CMC-2039, second listing): MIC = 25 μg/ml
- Inhibitory concentration MIC (MIC90) [5]: MIC = 25 μg/mL
- Inhibitory concentration IC50 [6]: IC50 = 821 μg/mL
- MIC90 value [7]: 25 to 50 µg/mL
- Inhibitory concentration MIC (MIC90) [8]: MIC = 25-50 μg/mL
- Inhibitory concentration MIC (MIC90) [9]: MIC = 12.5-50 μg/mL
- Inhibitory concentration MIC (MIC90) [10]: MIC = 25-50 μg/mL
- Inhibitory concentration MIC (MIC90) [11]: MIC = 25-50 μg/mL
